The target in data set [1] is T1, calpain-I isolated from human erythrocytes (Homo sapiens, UniProt P07384).
T1 construct: calpain-I—isolated from human erythrocytes; purchased Calbiochem 208713; host or cells: human erythrocytes (tissue-derived)
T1 sequence (P07384 1-714): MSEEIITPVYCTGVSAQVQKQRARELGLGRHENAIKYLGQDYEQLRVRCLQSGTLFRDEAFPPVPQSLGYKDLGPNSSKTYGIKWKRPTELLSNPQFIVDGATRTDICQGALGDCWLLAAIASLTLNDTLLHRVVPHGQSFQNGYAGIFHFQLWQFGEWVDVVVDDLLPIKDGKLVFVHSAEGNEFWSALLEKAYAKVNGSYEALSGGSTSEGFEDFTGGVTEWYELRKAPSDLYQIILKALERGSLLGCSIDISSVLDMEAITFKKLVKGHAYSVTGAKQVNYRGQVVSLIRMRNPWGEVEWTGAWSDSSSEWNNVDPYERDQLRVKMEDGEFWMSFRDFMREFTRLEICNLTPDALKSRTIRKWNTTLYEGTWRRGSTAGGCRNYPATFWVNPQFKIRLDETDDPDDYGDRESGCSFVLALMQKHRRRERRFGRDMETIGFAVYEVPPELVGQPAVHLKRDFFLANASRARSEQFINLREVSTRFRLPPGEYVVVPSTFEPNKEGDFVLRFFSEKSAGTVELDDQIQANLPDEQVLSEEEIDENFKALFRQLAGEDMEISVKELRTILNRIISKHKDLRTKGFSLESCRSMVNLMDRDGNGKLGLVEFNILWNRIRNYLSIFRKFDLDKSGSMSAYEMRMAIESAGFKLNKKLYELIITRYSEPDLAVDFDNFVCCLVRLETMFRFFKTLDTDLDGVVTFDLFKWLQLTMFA
T1 sequence (P04632 1-268 partner): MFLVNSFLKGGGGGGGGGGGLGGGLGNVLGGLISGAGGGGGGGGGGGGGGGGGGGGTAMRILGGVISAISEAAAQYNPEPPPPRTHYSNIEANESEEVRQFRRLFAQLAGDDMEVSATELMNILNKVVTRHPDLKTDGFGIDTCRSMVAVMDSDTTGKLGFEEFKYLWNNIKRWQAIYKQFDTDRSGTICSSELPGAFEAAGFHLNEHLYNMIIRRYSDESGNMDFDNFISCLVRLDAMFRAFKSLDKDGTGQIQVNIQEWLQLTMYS
The experiment in a line: Calpain I enzyme inhibition in vitro (kinetic fluorescence assay). The format is biochemical. The note with it: apparent Ki from IC50 (Cheng-Prussoff); 20 nM calpain-I, 100 μM Suc-Leu-Tyr-AMC, pH 7.3, room temperature. The gist of the method: (§1)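 Kinetic AMC fluorescence (ex 390/em 460 nm), room temperature. Calpain-I 20 nM, 100 μM Suc-Leu-Tyr-AMC, imidazole/CaCl2 pH 7.3; cathepsins B 0.25 nM/100 μM Z-Phe-Arg-AMC, K 3 nM/10 μM Z-Gly-Pro-Arg-AMC, S 0.5 nM/20 μM Z-Val-Val-Arg-AMC, each MES/EDTA/cysteine pH 6.0. Ki from IC50 via Cheng-Prusoff, averaging 2–4 curves.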

For data set [2], the target named is T2, cathepsin B isolated from human liver (Homo sapiens, UniProt P07858).
T2 construct: cathepsin B—isolated from human liver; purchased Calbiochem 219362; host or cells: human liver (tissue-derived)
The data set can be described thus: Cathepsin B enzyme inhibition in vitro (kinetic fluorescence assay). Format: biochemical. The note with it: Ki(cathepsin B)/Ki(calpain) ratio. An outline of the steps: as §1

For data set [3], the target named is T3, cathepsin K activated from recombinant human procathepsin K (Homo sapiens, UniProt P43235).
T3 construct: purchased Calbiochem 342001; host or cells: E. coli
T3 sequence (P43235 115-329): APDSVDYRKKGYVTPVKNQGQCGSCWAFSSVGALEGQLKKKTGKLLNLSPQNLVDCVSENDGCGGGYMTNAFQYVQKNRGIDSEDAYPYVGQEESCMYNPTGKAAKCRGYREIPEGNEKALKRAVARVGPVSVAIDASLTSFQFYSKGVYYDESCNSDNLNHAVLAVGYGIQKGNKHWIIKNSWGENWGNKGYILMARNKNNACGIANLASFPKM
The data set can be described thus: Cathepsin K enzyme inhibition in vitro (kinetic fluorescence assay). Particulars: Ki(cathepsin K)/Ki(calpain) ratio. Format: biochemical. An outline of the steps:
as §1

Data set [4] concerns the target T4, cathepsin L isolated from human liver (Homo sapiens, UniProt P07711).
T4 construct: cathepsin L—isolated from human liver; purchased Calbiochem 219402; host or cells: human liver (tissue-derived)
The experiment in a line: Cathepsin L enzyme inhibition in vitro (kinetic fluorescence assay). Particulars: Ki(cathepsin L)/Ki(calpain) ratio. The format is biochemical. The gist of the method: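 Inhibition of cathepsin L isolated from human liver was measured by kinetic fluorescence (excitation 390 nm, emission 460 nm) using 1 nM enzyme and 2 μM Z-Phe-Arg-AMC substrate (Km 2 μM) in 50 mM MES, 2 mM EDTA, 0.05% Brij 35, 2.5 mM L-cysteine, pH 6.0, at room temperature. Apparent Ki values came from IC50 values via the Cheng-Prussoff relation, averaged over 2 to 4 dose-effect plots.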

The target in data set [5] is T5, recombinant human cathepsin S (Homo sapiens, UniProt P25774).
T5 construct: purchased Calbiochem 219343; host or cells: E. coli
The experiment in a line: Cathepsin S enzyme inhibition in vitro (kinetic fluorescence assay). The format is biochemical. Particulars: Ki(cathepsin S)/Ki(calpain) ratio. An outline of the steps: as §1

A short description of data set [6]: Assay for determining cytosolic clearance, human liver cytosol. The note with it: 0.5 μM compound, 1 mg/ml human liver cytosol, 37° C., pH 7.5. The format is in vitro ADME. As for the experimental part:
(§2) For comparison purposes data measured with human liver cytosol were contrasted with those obtained with cynomolgus monkey liver cytosol.
(§3) 0.5 μM of a compound to be tested was incubated with 1 mg/ml of human liver cytosol as well as monkey liver cytosol at 37° C. in 0.5 M of phosphate buffer at pH 7.5 while shaking (commercial sources: female cynomolgus liver cytosol from Tebu bio, human liver cytosol from BDgentest).
(§4) In each case aliquots of 65 μl were taken after 0, 5, 10 and 15 min and transferred into wells of a wellplate which were immediately filled with 130 μl of ethanol to stop the reaction. The samples were kept frozen until analysis on a LC/MS/MS system (Applied Biosystems SCIEX 4000).
(§5) Read out parameters were the loss of parent compounds, from which the half life periods (T1/2) were calculated from.
(§6) To assess the stability of the compounds tested the clearance ranges were adjusted to the hepatic plasma flow of the different species according to the following scheme:
(§7) stable=from 0 to about ⅓ of the hepatic plasma flow;
(§8) moderately stable=from about ⅓ to about ⅔ of the hepatic plasma flow;
(§9) instable=more than ⅔ of the hepatic plasma flow.
(§10) Based on this adjustment the following qualifiers were assigned to evaluate the cytosolic stabilities of the compounds tested: […]

Data set [7] can be described thus: Assay for determining cytosolic clearance, cynomolgus monkey liver cytosol. Format: in vitro ADME. Particulars: 0.5 μM compound, 1 mg/ml cynomolgus monkey liver cytosol, 37° C., pH 7.5. As for the experimental part:
as §2, §3, §4, §5, §6, §7, §8, §9, §10

SMILES strings stand for the structures.

This is an account of results in patent publication US9018206B2, “Carboxamide compounds and their use as calpain inhibitors” (AbbVie Deutschland GmbH & Co. KG, priority 2009, dated 2015).

T5 sequence (P25774 115-331): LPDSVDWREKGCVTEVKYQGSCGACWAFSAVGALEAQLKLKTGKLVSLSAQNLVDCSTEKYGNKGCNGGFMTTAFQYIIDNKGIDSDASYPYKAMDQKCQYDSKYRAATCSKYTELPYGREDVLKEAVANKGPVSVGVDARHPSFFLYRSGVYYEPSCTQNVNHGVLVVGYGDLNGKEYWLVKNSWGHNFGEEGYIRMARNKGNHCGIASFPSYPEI
T4 sequence (P07711 114-333): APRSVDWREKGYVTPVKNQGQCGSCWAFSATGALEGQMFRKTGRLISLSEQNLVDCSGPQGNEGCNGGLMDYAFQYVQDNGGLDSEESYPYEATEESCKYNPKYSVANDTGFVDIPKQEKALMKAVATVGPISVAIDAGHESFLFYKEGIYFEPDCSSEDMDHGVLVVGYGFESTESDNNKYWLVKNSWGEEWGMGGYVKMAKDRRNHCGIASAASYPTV

Regarding `O=C(NCc1ccccn1)C(=O)C(Cc1ccccc1)NC(=O)[C@H]1CCC(=O)N1Cc1ccccc1` (stereo partly drawn) [Example 20, (2R)-1-Benzyl-N-{3,4-dioxo-1-phenyl-4-[(pyridin-2-ylmethyl)amino]butan-2-yl}-5-oxopyrrolidine-2-carboxamide], the Ki in data set [1] fell in the range of 50 to 100 nM. Moreover, in data set [2], the “Sel cat. B” value was “+++ (Ki(cathepsin B)/Ki(calpain) ratio of >30)”. The “Sel cat. K” value in data set [3] is on record as “+++ (Ki(cathepsin K)/Ki(calpain) ratio of >30)”. Moreover, in data set [4], the “Sel cat. L” value is on record as “++ (10<Ki(cathepsin B)/Ki(calpain)≦30)”. Also, in data set [5], the “Sel cat. S” value was “+++ (Ki(cathepsin S)/Ki(calpain) ratio of >100)”. Also, the “human cytCL” value in data set [6] was “++ (0-14 μl/min/mg)”. Moreover, in data set [7], the “cyno cytCL” value was “++ (0-18 μl/min/mg)”.
For `CCNC(=O)C(=O)C(Cc1ccccc1)NC(=O)[C@H]1CCC(=O)N1Cc1ccccc1` (stereo partly drawn) [Example 21, (2R)-1-Benzyl-N-[4-(ethylamino)-3,4-dioxo-1-phenylbutan-2-yl]-5-oxopyrrolidine-2-carboxamide], the Ki in data set [1] lay within 100 to 600 nM. In data set [2], the “Sel cat. B” value is reported as “+++ (Ki(cathepsin B)/Ki(calpain) ratio of >30)”. Also, the “Sel cat. K” value in data set [3] is “+++ (Ki(cathepsin K)/Ki(calpain) ratio of >30)”. The “Sel cat. L” value in data set [4] is “+++ (Ki(cathepsin L)/Ki(calpain) ratio of >30)”. In data set [5], the “Sel cat. S” value is “++ (30<Ki(cathepsin B)/Ki(calpain)≦100)”. Moreover, the “human cytCL” value in data set [6] was “++ (0-14 μl/min/mg)”. For the same compound, the “cyno cytCL” value in data set [7] was “++ (0-18 μl/min/mg)”.
For the compound `COc1cccc(C(F)(F)F)c1CN1C(=O)CC[C@@H]1C(=O)NC(Cc1ccccc1)C(=O)C(N)=O` (stereo partly drawn) [Example 50, (2R)—N-(4-Amino-3,4-dioxo-1-phenylbutan-2-yl)-5-oxo-1-[2-methoxy-6-(trifluoromethyl)benzyl]pyrrolidine-2-carboxamide], in data set [1], the Ki is below 50 nM. Besides, the “Sel cat. B” value in data set [2] is “+++ (Ki(cathepsin B)/Ki(calpain) ratio of >30)”. For the same compound, the “Sel cat. K” value in data set [3] is “+++ (Ki(cathepsin K)/Ki(calpain) ratio of >30)”. In data set [4], the “Sel cat. L” value was “+++ (Ki(cathepsin L)/Ki(calpain) ratio of >30)”. Moreover, in data set [5], the “Sel cat. S” value is listed as “+++ (Ki(cathepsin S)/Ki(calpain) ratio of >100)”. In data set [6], the “human cytCL” value is listed as “+ (14-70 μl/min/mg)”. For the same compound, in data set [7], the “cyno cytCL” value is “+ (18-90 μl/min/mg)”.
